According to patent US20130323231A1, “TREATMENT AND PROGNOSIS OF SOLID TUMOUR CANCERS” (ROYAL COLLEGE OF SURGEONS IN IRELAND, priority 2011, published 2013):

Legend:
[1] = test system: HCT116 cells; test: Calculated oxaliplatin IC50 in parental HCT116 cells; details: read-out: calculated IC50
[2] = test system: oxaliplatin resistance HCT116 cells; test: Calculated oxaliplatin IC50 in oxaliplatin resistant HCT116 cells; details: read-out: calculated IC50; HCT116 cells rendered oxaliplatin resistant by stepwise increasing oxaliplatin over 16 passages

O=C1[O][Pt]2([NH][C@@H]3CCCC[C@H]3[NH]2)[O]C1=O [oxaliplatin]
IC50 [1]: 0.35 µM | IC50 [2]: 5 µM
